# Measured values: article PMC6222691, “Isoxazolidine Conjugates of N3-Substituted 6-Bromoquinazolinones—Synthesis, Anti-Varizella-Zoster Virus, and Anti-Cytomegalovirus Activity” (Molecules : A Journal of Synthetic Chemistry and Natural …, 2018)
# Like-named read-outs stand apart in the source and are kept apart here.
# Columns and labels:
# TK+ VZV Strain (OKA) = assay: microbe, parasite or virus in culture; assay type: cell-based, varicella-zoster virus; conditions: Human alphaherpesvirus 3, HEL, read-out: Antiviral Activity EC50 TK+ VZV Strain (OKA)
# TK− VZV Strain (07-1) = assay: microbe, parasite or virus in culture; assay type: cell-based, varicella-zoster virus; conditions: Human alphaherpesvirus 3, HEL, read-out: Antiviral Activity EC50 TK− VZV Strain (07-1)
# [1] = system: human cytomegalovirus AD-169 Strain; assay: Antiviral activity against human cytomegalovirus AD-169 strain in HEL cell cultures; assay type: cell-based
# [2] = system: human cytomegalovirus Davis Strain; assay: Antiviral activity against human cytomegalovirus Davis strain in HEL cell cultures; assay type: cell-based
# murine leukemia (L1210) = assay: Inhibition of proliferation of murine leukemia L1210 cells; assay type: cell-based; conditions: Mus musculus, L1210, 48 h, read-out: IC50 L1210
# human T-lymphocyte (CEM) = assay: Inhibition of proliferation of human T-lymphocyte CEM cells; assay type: cell-based; conditions: 72 h, read-out: IC50 CEM
# [3] = system: human cervix carcinoma (HeLa); assay: Inhibition of proliferation of human cervix carcinoma HeLa cells; assay type: cell-based; conditions: 96 h, read-out: IC50 HeLa
# [4] = system: immortalized human dermal microvascular endothelial cells (HMEC-1); assay: Inhibition of proliferation of HMEC-1 cells; assay type: cell-based; conditions: HMEC-1, read-out: IC50 HMEC-1
# [5] = system: a wide variety of DNA and RNA viruses; assay: Antiviral screening against a wide variety of DNA and RNA viruses; assay type: cell-based
# [6] = system: L1210, CEM, HeLa, HMEC-1 cell lines; assay: Cytostatic activity against the tested cell lines; assay type: cell-based
# HEL cells = conditions: minimum cytotoxic concentration
# [7] = system: tobacco mosaic virus (TMV); design: method as in PMID 18259148; conditions: in vivo; cited from earlier work
# influenza A virus (H5N1) = conditions: cited from earlier work
# vaccinia virus = conditions: E6SM cell cultures; cited from earlier work
# in vitro = conditions: human
# PI4KIIIα = system: PI4KIIIα; design: method as in PMID 23944386; conditions: cited from earlier work
# [8] = system: human cytomegalovirus (HCMV); assay: Antiviral activity against HCMV, AD-169 and Davis strains (text summaries); assay type: cell-based; conditions: Human betaherpesvirus 5, AD169; HEL cells; both AD-169 and Davis strains; read-out: EC50 against HCMV (range over AD-169 and Davis strains)
# [9] = system: herpes simplex virus 1 (HSV-1); design: method as in PMID 21969760; conditions: cited from earlier work
# [10] = system: herpes simplex virus 2 (HSV-2); design: method as in PMID 21969760; conditions: cited from earlier work
# vaccinia virus (VACV) = conditions: cited from earlier work
# [11] = Human betaherpesvirus 5, AD169, HEL; read-out: Antiviral Activity EC50 AD-169 Strain
# [12] = Human betaherpesvirus 5, HEL; read-out: Antiviral Activity EC50 Davis Strain
structure (smiles),measurement,setting,value
"CCOP(=O)(OCC)[C@H]1C[C@@H](c2nc3ccc(Br)cc3c(=O)[nH]2)ON1C (relative stereo) [cis-11a, Diethyl cis-[5-(6-bromo-4-oxo-3,4-dihydroquinazolin-2-yl)-2-methylisoxazolidin-3-yl]phosphonate]",EC50,TK+ VZV Strain (OKA),> 100 µM
same,EC50,TK− VZV Strain (07-1),> 100 µM
same,EC50,[1]; [11],> 100 µM
same,EC50,[2]; [12],100 µM
same,IC50,murine leukemia (L1210),> 250 µM
same,IC50,human T-lymphocyte (CEM),242 ± 7 µM
same,IC50,[3],> 250 µM
same,IC50,[4],140 ± 54 µM
same,Activity against tested viruses (in words),[5],not active
same,Inhibition of proliferation of the tested cell lines (in words),[6],did not inhibit proliferation
same,Cytotoxicity Cell Morphology MCC,HEL cells; Table 2 (VZV experiments),>100 μM
same,Cytotoxicity Cell Morphology MCC,HEL cells; Table 3 (HCMV experiments),20 μM
"Cc1nc2ccc(Br)cc2c(=O)n1/N=C/c1ccccc1C(F)(F)F [compound 3, 2-methyl-3-(substituted-benzalamino)-4(3H)-quinazolinone]",curative effects against TMV,[7],54%
Cc1ccc(C(=O)/C=C/c2nc3ccc(I)cc3c(=O)n2-c2cccc(C(F)(F)F)c2)cc1 [compound 4],inhibition rate against H5N1,influenza A virus (H5N1),38%
"CCOP(=O)(OCC)[C@H]1C[C@H](c2nc3ccc(Br)cc3c(=O)n2C)ON1C (relative stereo) [trans-11j, Diethyl trans-{5-[6-bromo-3-methyl-4-oxo-3,4-dihydroquinazolin-2-yl]-2-methylisoxazolidin-3-yl}phosphonate]",EC50,TK+ VZV Strain (OKA),> 4 µM
same,EC50,TK− VZV Strain (07-1),> 4 µM
same,EC50,[1]; [11],> 20 µM
same,EC50,[2]; [12],> 100 µM
same,IC50,murine leukemia (L1210),138 ± 19 µM
same,IC50,human T-lymphocyte (CEM),128 ± 21 µM
same,IC50,[3],175 ± 105 µM
same,IC50,[4],> 250 µM
same,Activity against tested viruses (in words),[5],not active
same,Inhibition of proliferation of the tested cell lines (in words),[6],did not inhibit proliferation
same,Cytotoxicity Cell Morphology MCC,HEL cells; Table 2 (VZV experiments),20 μM
same,Cytotoxicity Cell Morphology MCC,HEL cells; Table 3 (HCMV experiments),20 μM
CCc1nc(-n2c(-c3ccccc3)nc3ccc(Br)cc3c2=O)nc(N)c1-c1ccc(Cl)cc1 [compound 2],MIC vaccinia virus,vaccinia virus,1.92 µg/mL
O=C(N/N=C/c1nc2ccc(I)cc2c(=O)n1-c1cccc(C(F)(F)F)c1)c1ccncc1 [compound 6],inhibition rate against H5N1,influenza A virus (H5N1),25%
"CCOP(=O)(OCC)[C@H]1C[C@H](c2nc3ccc(Br)cc3c(=O)[nH]2)ON1C (relative stereo) [trans-11a, Diethyl trans-[5-(6-bromo-4-oxo-3,4-dihydroquinazolin-2-yl)-2-methylisoxazolidin-3-yl]phosphonate]",EC50,TK+ VZV Strain (OKA),> 100 µM
same,EC50,TK− VZV Strain (07-1),66.9 µM
same,EC50,[1]; [11],> 100 µM
same,EC50,[2]; [12],> 100 µM
same,IC50,murine leukemia (L1210),126 ± 19 µM
same,IC50,human T-lymphocyte (CEM),148 ± 2 µM
same,IC50,[3],196 ± 20 µM
same,IC50,[4],85 ± 13 µM
same,Activity against tested viruses (in words),[5],not active
same,Inhibition of proliferation of the tested cell lines (in words),[6],did not inhibit proliferation
same,Cytotoxicity Cell Morphology MCC,HEL cells; Table 2 (VZV experiments),>100 μM
same,Cytotoxicity Cell Morphology MCC,HEL cells; Table 3 (HCMV experiments),100 μM
Nc1nc2c(ncn2COCCO)c(=O)[nH]1 [Acyclovir],CC50,in vitro,> 350 µM
"CCOP(=O)(OCC)[C@H]1C[C@H](c2nc3ccc(Br)cc3c(=O)n2Cc2ccc([N+](=O)[O-])cc2)ON1C (relative stereo) [trans-11e, Diethyl trans-{5-[6-bromo-3-(4-nitrobenzyl)-4-oxo-3,4-dihydroquinazolin-2-yl]-2-methylisoxazolidin-3-yl}phosphonate]",EC50,TK+ VZV Strain (OKA),6.84 µM
same,EC50,TK− VZV Strain (07-1),7.51 µM
same,EC50,[1]; [11],> 20 µM
same,EC50,[2]; [12],> 20 µM
same,IC50,murine leukemia (L1210),18 µM
same,IC50,human T-lymphocyte (CEM),17 ± 12 µM
same,IC50,[3],24 ± 9 µM
same,IC50,[4],26 ± 6 µM
same,Cytotoxicity Cell Morphology MCC,HEL cells; Table 2 (VZV experiments),20 μM
same,Cytotoxicity Cell Morphology MCC,HEL cells; Table 3 (HCMV experiments),100 μM
"O=c1[nH]c(=O)n([C@H]2C[C@H](O)[C@@H](CO)O2)cc1/C=C/Br [Brivudin, reference compound]",EC50,TK+ VZV Strain (OKA),0.023 ± 0.008 µM
same,EC50,TK− VZV Strain (07-1),31.9 ± 16.1 µM
same,Cytotoxicity Cell Morphology MCC,HEL cells; Table 2 (VZV experiments),>300 μM
same,CC50,in vitro,> 300 µM
"CCOP(=O)(OCC)[C@H]1C[C@H](c2nc3ccc(Br)cc3c(=O)n2CC)ON1C (relative stereo) [trans-11k, Diethyl trans-{5-[6-bromo-3-ethyl-4-oxo-3,4-dihydroquinazolin-2-yl]-2-methylisoxazolidin-3-yl}phosphonate]",EC50,TK+ VZV Strain (OKA),> 20 µM
same,EC50,TK− VZV Strain (07-1),> 20 µM
same,EC50,[1]; [11],> 20 µM
same,EC50,[2]; [12],44.7 µM
same,Activity against tested viruses (in words),[5],not active
same,Inhibition of proliferation of the tested cell lines (in words),[6],did not inhibit proliferation
same,Cytotoxicity Cell Morphology MCC,HEL cells; Table 2 (VZV experiments),100 μM
same,Cytotoxicity Cell Morphology MCC,HEL cells; Table 3 (HCMV experiments),20 μM
"Nc1nc(O)c2ncn(COC(CO)CO)c2n1 [Ganciclovir, reference compound]",EC50,"[1]; Human betaherpesvirus 5, AD169, HEL, read-out: Antiviral Activity EC50 AD-169 Strain",16.9 ± 6.9 µM
same,EC50,"[2]; Human betaherpesvirus 5, HEL, read-out: Antiviral Activity EC50 Davis Strain",7.7 ± 0.9 µM
same,Cytotoxicity Cell Morphology MCC,HEL cells; Table 3 (HCMV experiments),>350 μM
same,CC50,in vitro,> 350 µM
"COc1ncc(-c2ccc3nc(N)n(-c4ccccc4C(F)(F)F)c(=O)c3c2)cc1S(=O)(=O)Nc1ccc(F)cc1F (atropisomer, axis not shown; (aS)) [(aS)-9]",pIC50 PI4KIIIα,PI4KIIIα,8.3
CCNC(=S)N/N=C/c1nc2ccc(I)cc2c(=O)n1-c1cccc(C(F)(F)F)c1 [compound 5],inhibition rate against H5N1,influenza A virus (H5N1),47%
"Nc1ccn(C[C@@H](CO)OCP(=O)(O)O)c(=O)n1 [Cidofovir, reference compound]",EC50,[1]; [11],1.5 ± 0.2 µM
same,EC50,[2]; [12],1.7 ± 0.4 µM
same,EC50,[8],1500 to 1700 nM
same,Cytotoxicity Cell Morphology MCC,HEL cells; Table 3 (HCMV experiments),>300 μM
same,CC50,in vitro,> 300 µM
"O=c1[nH]cc(F)c(=O)[nH]1 [5-Fluorouracil, reference compound]",IC50,"murine leukemia (L1210); cell proliferation, two days",0.33 ± 0.17 µM
same,IC50,"human T-lymphocyte (CEM); cell proliferation, three days",18 ± 5 µM
same,IC50,"[3]; cell proliferation, four days",0.54 ± 0.12 µM
"O=C(O)c1cc(Br)ccc1-n1c(-c2ccccc2)nc2ccc(Br)cc2c1=O [compound 1, 5-bromo-2-(6-bromo-4-oxo-2-phenyl-4H-quinazolin-3-yl)-benzoic acid]",EC50 HSV-1,[9],12 µg/mL
same,EC50 HSV-2,[10],12 µg/mL
same,EC50 vaccinia virus (VACV),vaccinia virus (VACV),12 µg/mL
